This series is described as follows: Plasma concentration of infused peptides by radioimmunoassay.

No end group written: not given here.

Take “SWKPRSQQPDAPLGTGANR [progastrin fragment 1‐19]”: the “Plasma concentration relative to that of progastrin fragment 1‐35 in experiment D” value (fragment 1‐19 at t150 in part F versus fragment 1‐35 in part D) is listed as “half”. In addition, the Cmax (usually the peak of the concentration-time curve) (human, plasma, iv, 268 pmol/kg/h, SEM) was 0.43 ± 0.0899 nM.

These data come from paper PMC5350173, “Acute effects of N‐terminal progastrin fragments on gastric acid secretion in man” (Physiological Reports, 2017).
